Values of other authors in patent US20050026871A1 (priority 2002, published 2005).

Legend:
[1] = reported in the literature; cited from earlier work
[2] = Physicians' Desk Reference, Rocaltrol Oral Solution; cited from earlier work

SMILES	pH at which alendronate is best absorbed [1]	time to peak serum concentrations after ingestion [2]
NCCCC(O)(P(=O)(O)O)P(=O)(O)O [Alendronate, alendronate]	~6	–
C=C1/C(=C\C=C2/CCC[C@]3(C)[C@@H]([C@H](C)CCCC(C)(C)O)CC[C@@H]23)C[C@@H](O)C[C@@H]1O [calcitriol, 1α,25-dihydroxyvitamin D3]	–	three to six
